Data published in US12545653B2, “Compound as PPAR agonist and application thereof” (USA Elixiria Biotech Inc., priority 2019, dated 2026).
Where “and” joins values, the source holds several entries; their conditions need not be identical. Equal values may be shown once.

Legend:
[1] = biological target: T1, PPARγ (Homo sapiens, UniProt P37231); experiment: In vitro transcriptional activity of PPARγ gene (PPRE-luciferase reporter, HEK 293 T cells); type: cell-based; settings: HEK 293 T cells transfected with PPARγ expression and PPRE-luc plasmids, 21 hours; read-out: EC50 of PPARγ gene activation
T1 construct: expressed in transfected cells; host or cells: HEK 293 T cells
T1 sequence (P37231 1-505): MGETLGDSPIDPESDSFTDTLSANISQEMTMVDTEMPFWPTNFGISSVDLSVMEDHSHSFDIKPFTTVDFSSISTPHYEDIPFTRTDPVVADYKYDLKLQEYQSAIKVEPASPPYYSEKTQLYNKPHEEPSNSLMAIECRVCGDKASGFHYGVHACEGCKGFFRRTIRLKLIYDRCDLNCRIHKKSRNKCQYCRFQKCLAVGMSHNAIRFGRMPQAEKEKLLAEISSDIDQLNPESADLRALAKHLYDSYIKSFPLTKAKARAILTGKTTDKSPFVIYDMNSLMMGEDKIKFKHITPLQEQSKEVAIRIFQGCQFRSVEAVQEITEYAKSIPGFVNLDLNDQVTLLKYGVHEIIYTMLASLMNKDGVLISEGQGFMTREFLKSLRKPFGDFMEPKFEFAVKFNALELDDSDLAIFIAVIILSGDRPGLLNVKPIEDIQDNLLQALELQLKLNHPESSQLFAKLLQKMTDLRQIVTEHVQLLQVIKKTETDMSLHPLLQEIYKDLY

[2] = test system: klotho gene; experiment: In vivo brain transcriptional activity of klotho gene (RT-PCR of brain mRNA); design: species or system mouse; settings: 10 mg/kg body weight/day tail vein; for mRNA level of klotho gene in the brain of the mouse relative to vehicle control group: after 10 days of continuous injection; for fold induction at 10 mg/kg: Mus musculus, iv, 720 h, after 30 days of continuous injection, read-out: mRNA level of klotho gene in the brain of the mouse relative to vehicle control group
Method: To verify this hypothesis, adult male Kunming mice were used in the experiments. […] The injection volume is 8 ml/kg body weight. Dimethyl sulfoxide (DMSO) was used as a vehicle control of the compounds. […] The RNA was then reverse-transcribed to the cDNA, and quantified by SYBR Green fluorescence quantitative PCR kit (HaiGene) and a quantitative PCR system (Bio-Rad Min-Opticon Type 2) were used for real-time fluorescent quantitative polymerase chain reaction (RT-PCR). The mouse gene primers were design as follows: • KLOTHO-forward 5′-[…]-3′; • LOTHO-reverse 5′-[…]-3′; • GAPDH-forward 5′-[…]-3′; • GAPDH-reverse 5′-[…]-3′.
Data analysis was performed using the 2^−ΔΔct method. Semi-quantitative values of gene expression were then normalized by the control mean.

[3] = test system: db−/db− mice; experiment: Diabetic peripheral neuropathy model, Von Frey threshold, sciatic nerve ROS and MDA; type: in vivo, mouse; settings: in food 10 mg/kg body weight/day (pregabalin 30 mg/kg body weight/day); for level of MDA in the sciatic nerve after 10 week treatment / level of mitochondrial ROS in the sciatic nerve after 10 week treatment: compared with healthy control group; for mechanical pain threshold after 10 week treatment: compared with normal control group
Method: Male 5-6 week-old male db^−/db^− mice were used in the experiment, and their normoglycemic heterozygous littermates were used as controls. db^−/db^− is a commonly used type 2 diabetes animal model. The compounds was dissolved in DMSO and mixed into food pellets. The animals were given ad libitum access to the pellets, beginning from 8 to 9 weeks of age for 10 weeks. […] The method for detecting mice hindlimb hypersensitivity is performed using Von Frey filaments. […] The difference is significant with P<0.05. The increase of mitochondrial reactive oxygen species (ROS) in the sciatic nerve of mice, which in turn leads to the increase of intracellular malondialdehyde (MDA), is the etiology of this type of neuropathic pain. The efficacy of compound to treat the root cause of the disease was evaluated by measurement of the levels of MDA and mitochondrial ROS from the sciatic nerves.

`COc1ccc(CC/C=C/c2ccc3c(c2)C(=O)CC3)cc1` [ELB001116, (E)-6-(4-(4-methoxyphenyl)but-1-en-1-yl)-2,3-dihydro-1H-inden-1-one] was tested, and the EC50 [1] was < 6.4 µM, the “mRNA level of klotho gene in the brain of the mouse relative to vehicle control group” value [2] was “more than twice” and the fold induction at 10 mg/kg [2] was > 5. For the same compound, the “level of MDA in the sciatic nerve after 10 week treatment” value (“level of MDA in the sciatic nerve” for short) [3] was “no difference”, the “level of mitochondrial ROS in the sciatic nerve after 10 week treatment” value (shortened to “level of mitochondrial ROS”) [3] was “no difference” and the “mechanical pain threshold after 10 week treatment” value (“mechanical pain threshold” below) [3] was “no difference”.
`CCc1ccc(CC/C=C/c2ccc3c(c2)C(=O)COC3)cc1` [ELB001046, (E)-6-(4-(4-ethylphenyl)but-1-en-1-yl)isochroman-4-one] was tested, and the EC50 [1] was < 6.4 µM, the “mRNA level of klotho gene in the brain of the mouse relative to vehicle control group” value [2] was “more than twice” and the fold induction at 10 mg/kg [2] was > 5. The “level of MDA in the sciatic nerve” value [3] was “reduced”, the “level of mitochondrial ROS” value [3] was “reduced” and the “mechanical pain threshold” value [3] was “significantly improved”.
For `CCc1ccc(CC/C=C/c2ccc3c(c2)OCCC3=O)cc1` [ELB001045, (E)-7-(4-(4-ethylphenyl)but-1-en-1-yl)chroman-4-one], the EC50 [1] was < 6.4 µM and 3.5 µM, the “mRNA level of klotho gene in the brain of the mouse relative to vehicle control group” value [2] was “more than twice” and the fold induction at 10 mg/kg [2] was > 5. For the same compound, the “level of MDA in the sciatic nerve” value [3] was “reduced”, the “level of mitochondrial ROS” value [3] was “reduced” and the “mechanical pain threshold” value [3] was “significantly improved”.
In the case of `CCc1ccc(CC/C=C/c2ccc3c(c2)C(=O)CC3)cc1` [ELB00824, (E)-6-(4-(4-ethylphenyl)but-1-en-1-yl)-2,3-dihydro-1H-inden-1-one], the EC50 [1] is reported as < 6.4 µM and 4.7 µM, the “mRNA level of klotho gene in the brain of the mouse relative to vehicle control group” value [2] is reported as “more than twice” and the fold induction at 10 mg/kg [2] is reported as > 5. The “level of MDA in the sciatic nerve” value [3] was “no difference”, the “level of mitochondrial ROS” value [3] was “no difference” and the “mechanical pain threshold” value [3] was “no difference”.
With `CCc1ccc(CC/C=C/c2ccc3c(c2)C(=O)CC3)nc1` [ELB001125, (E)-6-(4-(5-ethylpyridin-2-yl)but-1-en-1-yl)-2,3-dihydro-1H-inden-1-one] the EC50 [1] was < 6.4 µM, the “mRNA level of klotho gene in the brain of the mouse relative to vehicle control group” value [2] was “more than twice” and the fold induction at 10 mg/kg [2] was > 5. For the same compound, the “level of MDA in the sciatic nerve” value [3] was “reduced”, the “level of mitochondrial ROS” value [3] was “reduced” and the “mechanical pain threshold” value [3] was “significantly improved”.
`CCc1ccc(OC/C=C/c2ccc3c(c2)C(=O)CC3)cc1` [ELB001115, (E)-6-(3-(4-ethylphenoxy)prop-1-en-1-yl)-2,3-dihydro-1H-inden-1-one] was tested, and the EC50 [1] was < 6.4 µM and 4.8 µM, the “mRNA level of klotho gene in the brain of the mouse relative to vehicle control group” value [2] was “more than twice” and the fold induction at 10 mg/kg [2] was > 5. The “level of MDA in the sciatic nerve” value [3] was “reduced”, the “level of mitochondrial ROS” value [3] was “reduced” and the “mechanical pain threshold” value [3] was “significantly improved”.
